Results reported in patent US20070270403A1 (priority 2003, published 2007).
Read-outs that look alike come from different tables or passages of the source.

What was measured:
[1] = system: Sprague-Dawley laboratory rats; experiment: Locomotion (ambulations) by infrared photobeams (risperidone studies); type: in vivo, Sprague-Dawley Rattus Norvegicus
Protocol: (§1) Behaviors were monitored with infrared photobeams which surrounded the faradaic chamber. Open-field behaviors of locomotion (ambulations) and stereotypy (fine movements of sniffing and grooming) were recorded in sec and repeated every five min for a period of 2 hrs before each treatment and a period of 2 hrs after each treatment. Open-field behaviors were monitored simultaneously with in vivo microvoltammetric recordings of monoamines.
(§2) The first hr pre-drug, allowed exploratory behavior. Exploratory behavior is defined as open-field behavior of ambulations (forward locomotion) and stereotypy (fine movements of sniffing and grooming), wherein animals respond to the stimuli of a novel environment with a high frequency of behavioral counts. The second hr pre-drug allowed the animal to become habituated before treatment. […] In the acute studies, each drug was administered […]. For the subacute studies, twenty four hrs later, the animals were again placed in the faradaic behavioral chamber and no further drug was administered. Each animal was monitored for possible recovery, withdrawal or after-effects. of each treatment WHILE open-field behaviors of locomotions and stereotypy were monitored with computerized infrared photocell beams which surround the faradaic chamber.
(§3) The faradaic chamber was made of plexiglas and covered with copper wire to refract possible electrical artifacts (dimensions: 24 inch (width) by 18 inch (depth) by 23.5 inch (height)). A 16 by 16 array of infrared photobeams, held in place by an aluminum frame, was situated ¾ inch above the Plexiglas floor of the chamber to detect locomotor and stereotypic movements. Photobeams were sampled by a Pentium computer to define the x-y position of the animal within a 1.5 inch resolution every 100 msec. When an x-y position was calculated, it was used to define a particular behavioral parameter. This system is a modified version of an Activity Pattern Monitor (APM) (San Diego Instruments, San Diego, Calif.). Behavioral data is presented in terms of Frequency of Events.
(§4) Neurochemical and behavioral data, derived from the last thirty minutes of the habituation period, provided the baseline data. […] Where appropriate, data points in the time course were subjected to 95% Confidence Limits (C.L.).

DA release in NAcc [2] = experiment: In vivo microvoltammetry, DA release in NAcc (risperidone studies); set-up: species or system Sprague-Dawley Rattus Norvegicus
Protocol: (§5) In vivo microvoltammetry was used to detect dopamine (DA) and serotonin (5-HT) release from Nucleus Accumbens (NAcc) of freely moving, male, Sprague Dawley laboratory rats, while animals' locomotor (forward ambulations) and stereotypic behavior (fine movements of sniffing and grooming) were monitored at the same time with infrared photobeams. Monoamine release mechanisms were determined by using a depolarization blocker, gamma-butyrolactone (γBL). Miniature carbon sensors, BRODERICK PROBE® Lauric Acid Microelectrodes, smaller than a human hair, were used in conjunction with a semidifferential electrochemical circuit, to detect release of each monoamine in separate signals and within seconds. […] The hypothesis for the present studies is derived from a growing body of evidence that cocaine-induced psychosis and schizophrenic psychosis share similar neurochemical and behavioral manifestations.
(§6) Animals were purchased from Charles River Laboratories, Kingston, N.Y. and were housed in our animal care facilities for two weeks before surgery was performed. The Animal Care Facility operates under the auspices of the CUNY, City College Institutional Animal Care and Use Committee (IACUC) in compliance with National Institute of Health (NIH) guidelines. The weight range for the animals, at the time of the studies, was 350-475 g. Animals were group housed before surgery, individually housed after surgery and fed Purina Rat Chow and water ad libitum. A twelve hr dark-light cycle was maintained both in the housing of the animals and throughout the experimental studies. […] A Ag/AgCl reference electrode was placed in contact with dura, 7 mm anteriorally and contralaterally to the indicator microelectrode. A stainless steel auxiliary microelectrode, was placed in contact with dura.
In vivo microvoltammetric studies on conscious Sprague-Dawley laboratory rats were begun nine to fifteen days after the aseptic surgical operations were performed. On each experimental day, animals were placed in a Plexiglas-copper faradaic chamber. The three-microelectrode assembly, enclosed within the animal's prosthetic acrylic cap, was connected to a CV37 detector by means of a mercury commutator (Br. Res. Instr., Princeton, N.J.), a flexible cable, and a mating connector (BJM Electronics, Staten Island, N.Y.). […] In vivo microvoltammetric scans were recorded in sec and repeated every five min for a period of 2 hrs before each treatment and a period of two hrs after each treatment.
The first hr pre-drug, allowed exploratory behavior. […] Each animal was monitored for possible recovery, withdrawal or after-effects. of each treatment WHILE open-field behaviors of locomotions and stereotypy were monitored with computerized infrared photocell beams which surround the faradaic chamber.

[3] = system: Sprague-Dawley laboratory rats; experiment: Stereotypy (fine movements of sniffing and grooming) by infrared photobeams (risperidone studies); type: in vivo, Sprague-Dawley Rattus Norvegicus
Protocol: as §1, §2, §3, §4

[4] = system: 5-hydroxyindoleacetic acid (5-HIAA) in NAcc; details: risperidone 0.2 mg/kg s.c. and 2.0 mg/kg s.c., time-dependent; cited from earlier work
DA2 receptor = molecular target: T1, DA2 receptor (Rattus norvegicus, UniProt P61169); details: cited from earlier work
T1 construct: host or cells: brain (nucleus accumbens) of dosed animals

DA2 receptors = DA2 receptors (Homo sapiens, UniProt P14416); details: ketanserin: DA receptors; cited from earlier work
[5] = humans, cited from earlier work
5-HT release in NAcc [6] = experiment: In vivo microvoltammetry, 5-HT release in NAcc (risperidone studies); set-up: species or system Sprague-Dawley Rattus Norvegicus
Protocol: as §5, §6
(§7) In vivo microvoltammetric studies on conscious Sprague-Dawley laboratory rats were begun nine to fifteen days after the aseptic surgical operations were performed. On each experimental day, animals were placed in a Plexiglas-copper faradaic chamber. The three-microelectrode assembly, enclosed within the animal's prosthetic acrylic cap, was connected to a CV37 detector by means of a mercury commutator (Br. Res. Instr., Princeton, N.J.), a flexible cable, and a mating connector (BJM Electronics, Staten Island, N.Y.). The CV37 detector was electrically connected to a Minigard surge suppresser (Jefferson Electric, Magnetek, N.Y.) which was then connected to an electrical ground in isolation. […] Each animal was used as its own control. In vivo microvoltammetric scans were recorded in sec and repeated every five min for a period of 2 hrs before each treatment and a period of two hrs after each treatment.
as §2

5-HT release in NAcc [7] = experiment: In vivo microvoltammetry, 5-HT release in NAcc (clozapine studies); set-up: species or system Sprague-Dawley Rattus Norvegicus; details: ketanserin 3 mg/kg s.c. substituted for clozapine
Protocol: (§8) There is an increasing awareness that a psychosis, similar to that of schizophrenic psychosis, can be derived from cocaine addiction. […] Release mechanisms for monoamines, were determined by using a depolarization blocker, gamma-butyrolactone (γBL). […] Acute and Subacute studies were performed for each treatment group.
(§9) The stereotaxic equipment was purchased from David Kopf Instruments, Tujunga, Calif. A Ag/AgCl reference electrode was placed in contact with dura, 7 mm anteriorally and contralaterally to the indicator microelectrode. A stainless steel auxiliary microelectrode was placed in contact with dura. BRODERICK PROBE® microelectrodes were manufactured on site.
as §7, with “the animal was” for “animals were”, “control. Changes in synaptic concentrations of DA and 5-HT are presented as percent change (% of control) in order to minimize normal between-animal variations. […]” for “control.”
(§10) Potentials were applied with a CV37 detector (BAS, West Lafayette, Ind.). Potentials were applied from −0.2V to +0.4V with respect to a Ag/AgCl (1M NaCl) electrode, at a scan rate of 10 mV/sec at time constants of 5 and 1 tau. One scan was completed in 60 sec. Non-faradaic charging current was eliminated in the first 25 sec.
(§11) Calibration curves were determined experimentally, in vitro, in a freshly prepared deoxygenated physiological saline-phosphate buffer solution (0.01 M, pH=7.4). We use ultra pure Nitrogen (N2) (T. W. Smith Corp., Bklyn, N.Y.) to deoxygenate the buffer solution. […] Calibration studies were also performed in freshly prepared deoxygenated buffer solutions containing phosphotidylethanolamine (PEA), combined with bovine serum albumin (BSA) (Sigma Aldrich, St. Louis, Mo.), a solution which closely mimics brain constituents. […] Detection limits for basal synaptic concentrations of DA and 5-HT in NAcc were 12 nM and 2 nM respectively.

[8] = system: Sprague-Dawley laboratory rats; experiment: Locomotor activity (ambulations) by infrared photobeams (clozapine studies); type: in vivo, Sprague-Dawley Rattus Norvegicus; details: ketanserin 3 mg/kg s.c. substituted for clozapine
Text: Locomotor activity (ambulation) was monitored with infrared photobeams at the same time as DA and 5-HT release in NAcc was detected with BRODERICK PROBES® in conjunction with In Vivo Microvoltammetry. The chamber was faradaic, covered with copper to refract possible electrical artifacts (dimensions: 24 in (width) by 18 in (depth) by 23.5 in (height)). A 16 by 16 array of these infrared photobeams, were held in place by an aluminum frame which was situated ¾ in above the Plexiglas floor of the chamber to detect locomotor activity. Photobeams were sampled by a Pentium computer to define the x-y position of the animal within a 1.5 in resolution every 100 msec. When an x-y position was calculated, it was used to define the frequency of locomotor activity in counts. The locomotor activity system is a modified version of an Activity Pattern Monitor (APM) (San Diego Instruments, San Diego, Calif.). Behavioral data is presented in absolute frequency, i.e., number of counts recorded.
The first hr pre-drug allowed exploratory behavior. Exploratory behavior is defined as open-field behavior of ambulations (forward locomotion) wherein animals respond to the stimuli of a novel environment with high frequency of behavioral counts. The second hr pre-drug allowed the animal to become habituated before treatment.
In the Acute studies, each drug was administered at the end of the habituation period. Baseline (control) values were taken every five min for the last thirty min of the habituation period at which time drug injection(s) took place. Electrochemical recordings for DA and 5-HT release in NAcc, were continued for two hrs; at the same time, locomotor behavior continued to be monitored and recorded with infrared photobeams. At the end of the 2 hr drug(s) study, animals were then placed back in their home cages.
In the Subacute studies, which took place twenty-four hrs later, the animals were again placed in the faradaic behavioral chamber and no further drug was administered. Recordings of separate electrochemical signals for DA and 5-HT release in NAcc, were taken for one hr; at the same time, locomotor behavior was monitored and recorded with infrared photobeams.
as §4

5-HT2A receptors = 5-HT2A receptors (Homo sapiens, UniProt P28223); details: cited from earlier work
DA release in NAcc [9] = experiment: In vivo microvoltammetry, DA release in NAcc (clozapine studies); set-up: species or system Sprague-Dawley Rattus Norvegicus; details: ketanserin 3 mg/kg s.c. substituted for clozapine
Protocol: as §8, §9
as §7, with “the animal was” for “animals were”, “control. Changes in synaptic concentrations of DA and 5-HT are presented as percent change (% of control) in order to minimize normal between-animal variations. […]” for “control.”
as §10, §11

[10] = 24 hr after risperidone 2 mg/kg s.c.
[11] = 24 hr after single dose, no further drug
[12] = risperidone 2 mg/kg s.c. + cocaine 10 mg/kg i.p., entire 2 hr period
[13] = risperidone 2 mg/kg s.c., cocaine 10 mg/kg i.p. or both, 2 hr
[14] = risperidone 2 mg/kg s.c. + cocaine 10 mg/kg i.p., versus cocaine group

DA2 receptors, sequence (P14416 whole entry): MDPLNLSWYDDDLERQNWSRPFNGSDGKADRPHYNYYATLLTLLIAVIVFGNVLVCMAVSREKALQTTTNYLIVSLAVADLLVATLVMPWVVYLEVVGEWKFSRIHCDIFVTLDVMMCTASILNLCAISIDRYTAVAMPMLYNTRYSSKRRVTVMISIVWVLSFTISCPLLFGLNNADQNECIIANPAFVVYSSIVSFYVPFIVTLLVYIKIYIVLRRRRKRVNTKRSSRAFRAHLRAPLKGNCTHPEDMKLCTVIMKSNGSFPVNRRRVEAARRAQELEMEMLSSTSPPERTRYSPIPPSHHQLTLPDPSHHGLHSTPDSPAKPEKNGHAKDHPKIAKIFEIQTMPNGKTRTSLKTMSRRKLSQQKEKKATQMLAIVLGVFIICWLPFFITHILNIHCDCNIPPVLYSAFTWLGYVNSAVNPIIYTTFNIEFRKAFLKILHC
T1 sequence (P61169 whole entry): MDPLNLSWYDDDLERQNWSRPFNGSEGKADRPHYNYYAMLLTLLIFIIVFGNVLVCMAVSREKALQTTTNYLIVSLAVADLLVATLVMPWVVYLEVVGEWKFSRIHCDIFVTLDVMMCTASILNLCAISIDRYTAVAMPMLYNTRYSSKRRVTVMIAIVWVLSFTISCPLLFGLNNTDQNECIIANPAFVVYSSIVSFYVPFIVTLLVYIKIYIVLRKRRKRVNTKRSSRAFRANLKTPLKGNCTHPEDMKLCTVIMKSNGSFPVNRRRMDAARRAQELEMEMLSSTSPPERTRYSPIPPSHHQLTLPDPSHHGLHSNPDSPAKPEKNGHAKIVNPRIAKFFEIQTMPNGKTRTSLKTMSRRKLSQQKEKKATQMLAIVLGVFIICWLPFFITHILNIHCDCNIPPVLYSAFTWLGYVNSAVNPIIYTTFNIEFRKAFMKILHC
5-HT2A receptors, sequence (P28223 whole entry): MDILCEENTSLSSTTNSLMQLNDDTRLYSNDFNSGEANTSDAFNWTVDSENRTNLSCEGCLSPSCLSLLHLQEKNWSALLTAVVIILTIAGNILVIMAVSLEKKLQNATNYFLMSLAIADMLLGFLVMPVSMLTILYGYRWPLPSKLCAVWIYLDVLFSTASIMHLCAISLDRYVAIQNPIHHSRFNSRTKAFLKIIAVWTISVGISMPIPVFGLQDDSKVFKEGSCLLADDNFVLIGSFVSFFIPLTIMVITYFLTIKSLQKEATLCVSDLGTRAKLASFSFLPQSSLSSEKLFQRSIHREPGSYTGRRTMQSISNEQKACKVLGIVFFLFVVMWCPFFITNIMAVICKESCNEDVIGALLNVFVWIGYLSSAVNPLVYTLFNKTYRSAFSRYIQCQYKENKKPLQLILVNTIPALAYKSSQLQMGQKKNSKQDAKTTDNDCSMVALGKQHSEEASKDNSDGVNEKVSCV

Cc1nc2n(c(=O)c1CCN1CCC(c3noc4cc(F)ccc34)CC1)CCCC2 [Risperidone, risperidone]
Locomotor activity frequency, Day 2 (Subacute) [1, 10]: about 200 counts
Locomotion Day 2 versus Day 1 baseline, Subacute [1, 11]: did not affect locomotion to a statistically significant degree
Locomotor activity frequency with drug treatment, Day1 ([1]; risperidone 2 mg/kg s.c.): 50 counts
Effect on cocaine-induced locomotor (psychostimulant) activity, Acute [1, 12]: blocked
Locomotor activity (ambulations) versus baseline (habituation), Day 1 Acute [1, 13]: did not affect
DA release in NAcc Day 2 versus Day 1 baseline, Subacute (DA release in NAcc [2]; 24 hr after single dose (risperidone 2 mg/kg s.c., cocaine 10 mg/kg i.p. or both), no further drug): returned to baseline
DA release in NAcc versus baseline (habituation), Day 1 Acute (DA release in NAcc [2]; risperidone 2 mg/kg s.c. (N=5) or cocaine 10 mg/kg i.p. (N=4), 2 hr): significantly increased
Effect on cocaine-induced DA release, Acute, first hr (DA release in NAcc [2]; [14]): significant blockade
Effect on cocaine-induced DA release, Acute, second hr (DA release in NAcc [2]; [14]): did not completely block
Stereotypy maximum frequency, Day 2 (Subacute) [3, 10]: about 50 counts
Stereotypy Day 2 versus Day 1 baseline, Subacute [3, 11]: increased stereotypy to a statistically significant degree
Stereotypy maximum frequency with drug treatment, Day 1 ([3]; risperidone 2 mg/kg s.c.): 12 counts
Effect on cocaine-induced stereotypic activity, Acute [3, 12]: blocked
Stereotypy versus baseline (habituation), Day 1 Acute [3, 13]: did not affect
Increase in 5-HIAA concentrations above baseline (up to) [4]: up to 20%
ED50 of DA2 receptor occupancy (DA2 receptor; NAcc, [3H] spiperone labeling studies): 1.0 mg/kg
DA2 receptor occupancy (DA2 receptor; high dose risperidone): 70%
Affinity for DA2 receptors (DA2 receptors): high affinity
half-life ([5]; fast metabolizers): 3 h
half-life ([5]; slow metabolizers): 20 h
5-HT release in NAcc Day 2 versus Day 1 baseline, Subacute (5-HT release in NAcc [6]; 24 hr after single dose, no further drug, 1 hr, cocaine: 15, 20, 50, 55 min time points): significantly increased
Increase in 5-HT release in NAcc during the time course (up to) (5-HT release in NAcc [6]; Acute, risperidone 2 mg/kg s.c.): about 60%
Further increase in 5-HT release on Day 2 compared to drug effect on Day 1 (approximate average) (5-HT release in NAcc [6]; Subacute, risperidone 2 mg/kg s.c. on Day 1): ~25%
Effect on cocaine-induced 5-HT release, Acute (5-HT release in NAcc [6]; [12]): blocked
5-HT release in NAcc versus baseline (habituation), Day 1 Acute (5-HT release in NAcc [6]; [13]): significantly increased

O=C(c1ccc(F)cc1)C1CCN(CCn2c(=O)[nH]c3ccccc3c2=O)CC1 [ketanserin]
Blockade of cocaine-induced 5-HT release, Acute, compared with clozapine (5-HT release in NAcc [7]): weaker than that of clozapine
Blockade of cocaine-induced psychomotor stimulant behavior, Acute, compared with clozapine [8]: weaker than that of clozapine
Affinity for 5-HT2A receptors (5-HT2A receptors): high affinity
Affinity for DA2 receptors (DA2 receptors): does not bind
Blockade of cocaine-induced DA release, Acute, compared with clozapine (DA release in NAcc [9]): weaker than that of clozapine
